Experimental data published in article PMC4627342 (Oncotarget, 2015).
Read-outs that look alike come from different tables or passages of the source.

How the values were obtained:
[1] = in vivo; conditions: both, NIH, mouse, iv
Protocol: Blood was collected from the retro-orbital plexus at designated time points and they were kept in cold heparin coated glass tubes. The blood from 1 male and 1 female was pooled and plasma was isolated and stored at −80°C until analysis. […] Pharmacokinetic parameters was determined from the concentration-time data by non compartment model using the 3P97 software (Practical Pharmacokinetics Software, Beijing, China).

[2] = tested on: liver; assay: Swiss mice hepatotoxicity model; conditions: after 2 weeks, liver tissues
[3] = tested on: HepG2 cells; assay: Doxorubicin and rhodamine 123 accumulation by flow cytometry in parental cells; format: cell-based, human; conditions: in the presence of lapatinib
Protocol: The human hepatocellular carcinoma cell line HepG2 was obtained from American Type Culture Collection (ATCC). The Dox-selected derivative ABCB1-overexpressing HepG2/Adr subline was established as previous study. All cells were grown in DMEM supplemented with 10% fetal bovine serum, 100 units/mL streptomycin sulfate and 100 units/mL penicillin G sulfate, and maintained at 37°C in the presence of 5% CO2. HepG2/Adr cells were cultured with 1.2 μM Dox to maintain its ABCB1-overexpressing properties. All cells were grown in drug-free culture medium for more than 2 weeks before assay.
The accumulation of doxorubicin or rhodamine 123 in HepG2 and HepG2/Adr cells was measured as previously described. Verapamil, a known ABCB1 inhibitor, was used as a positive control.

[4] = molecular target: T1, ABCB1-overexpressing HepG2/Adr cells (Homo sapiens, UniProt P08183); assay: MTT cytotoxicity of doxorubicin with lapatinib, resistant cells; format: cell-based; conditions: lapatinib added 1 h before doxorubicin
T1 construct: The Dox-selected derivative ABCB1-overexpressing HepG2/Adr subline was established as previous study; endogenous in cells; host or cells: HepG2/Adr (doxorubicin-selected subline of human HepG2)
T1 sequence (P08183 whole entry): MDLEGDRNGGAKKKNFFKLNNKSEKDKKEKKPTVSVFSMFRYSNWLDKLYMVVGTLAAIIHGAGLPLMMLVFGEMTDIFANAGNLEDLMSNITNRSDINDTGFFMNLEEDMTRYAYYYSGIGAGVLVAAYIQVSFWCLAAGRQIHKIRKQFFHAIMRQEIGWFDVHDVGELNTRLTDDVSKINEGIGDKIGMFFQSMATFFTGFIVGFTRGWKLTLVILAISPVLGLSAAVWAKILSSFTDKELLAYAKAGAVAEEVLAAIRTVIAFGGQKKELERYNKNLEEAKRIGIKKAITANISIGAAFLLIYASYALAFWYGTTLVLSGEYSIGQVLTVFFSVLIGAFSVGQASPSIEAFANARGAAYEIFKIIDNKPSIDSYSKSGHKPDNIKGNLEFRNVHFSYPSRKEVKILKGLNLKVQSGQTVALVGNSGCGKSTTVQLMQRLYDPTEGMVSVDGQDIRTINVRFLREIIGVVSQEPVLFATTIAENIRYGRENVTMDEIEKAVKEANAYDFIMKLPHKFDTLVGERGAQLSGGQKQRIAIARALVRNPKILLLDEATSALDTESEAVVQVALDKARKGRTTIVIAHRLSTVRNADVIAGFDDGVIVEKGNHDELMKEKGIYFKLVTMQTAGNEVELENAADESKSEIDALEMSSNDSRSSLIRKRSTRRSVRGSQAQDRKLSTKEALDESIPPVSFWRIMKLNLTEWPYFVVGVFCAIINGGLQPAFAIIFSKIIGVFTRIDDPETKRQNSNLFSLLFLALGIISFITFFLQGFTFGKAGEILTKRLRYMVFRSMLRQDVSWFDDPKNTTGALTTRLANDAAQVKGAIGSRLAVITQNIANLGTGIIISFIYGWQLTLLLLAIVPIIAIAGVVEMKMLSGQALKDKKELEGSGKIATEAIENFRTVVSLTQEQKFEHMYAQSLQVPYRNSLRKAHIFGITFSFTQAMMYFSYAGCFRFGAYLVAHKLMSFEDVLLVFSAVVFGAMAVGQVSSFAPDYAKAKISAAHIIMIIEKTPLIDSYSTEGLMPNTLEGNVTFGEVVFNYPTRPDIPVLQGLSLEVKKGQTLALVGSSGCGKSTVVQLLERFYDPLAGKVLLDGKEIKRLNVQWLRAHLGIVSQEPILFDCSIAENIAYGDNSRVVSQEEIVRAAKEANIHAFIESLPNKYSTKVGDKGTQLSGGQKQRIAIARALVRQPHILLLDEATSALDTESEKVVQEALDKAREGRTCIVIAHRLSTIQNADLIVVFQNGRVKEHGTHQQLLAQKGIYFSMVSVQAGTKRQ
Protocol: (§1) We collected the cells and seeded them at a density of 3.0 × 10^3 cells per well in 96-well plates. […] After 68 h, MTT (5 mg/mL, 20 μL) was added into each well and cultured for another 4 h. Then the medium was discarded and each well was added with 120 μL DMSO. Finally, optical density was measured at 540 nm with background subtraction at 670 nm by Model 550 Microplate Reader (Bio-Rad, Hercules, CA, USA).

[5] = human pharmacokinetic studies ref 35, 36; cited from earlier work
[6] = tested on: HepG2 cells; assay: MTT cytotoxicity of doxorubicin with lapatinib, parental cells; format: cell-based, human; conditions: lapatinib added 1 h before doxorubicin
Protocol: as §1

[7] = tested on: Swiss mice liver tissues; assay: Ex vivo doxorubicin accumulation in Swiss mice liver tissues; conditions: 2.5 μM lapatinib, 10 μM doxorubicin
Protocol: The fresh normal liver tissue adjacent to the hepatocellular carcinoma retrieved from Sun Yat-sen university cancer center was used for the drug accumulation assay ex vivo. Informed consent was obtained from the patients before tissue collection. The work was approved by the ethics review committee at Sun Yat-sen University (Guangzhou, China). Liver tissues of 50-100 mg were cut into small pieces (1mm^3) and cultured in DMEM containing 15% fetal bovine serum at 37°C. […] Subsequently, the tissues were then collected, centrifuged and washed twice with cold PBS containing 10 μM verapamil. Then, liver tissues were resuspended in 1 ml/100 mg tissues lysis solution which contained 0.3 mol/l HCl and 60% ethanol (1:1) and was homogenized at 4°C and then centrifuged at 12 000 × g [43]. The supernatant was removed and its fluorescence signal was measured by a spectrofluorometer at λex 470 nm and λem 590 nm. Simultaneously, the standard curve of doxorubicin was made with the same condition. The doxorubicin accumulation in liver tissues (μg/g) was calculated according to the fluorescence value using a standard curve.

[8] = tested on: ABCB1; assay: ABCB1 expression by Western blot and qRT-PCR; format: cell-based, human; conditions: HepG2/Adr cells, lapatinib for 24, 48 or 72 h
Protocol: After being incubated in blocking solution containing 5% non-fat milk in TBST buffer (10 mM Tris-HCL (pH 8.0), 150 mM NaCl, and 0.1% Tween 20) for 2 h at room temperature, membranes were incubated with primary antibody ABCB1 (1:1000 dilution, Santa Cruz Biotechnology) and GAPDH (1:5000 dilution, Kangcheng Biotechnology). The membranes were then incubated for 2 h with HRP-conjugated secondary antibody at 1:5000 dilution. Immunoreactive bands were visualized by the enhanced Phototope TM-HRP Detection Kit (Cell Signaling, USA) and exposed to Kodak medical X-ray processor (Carestream Health, USA). Protein expression was quantified by Scion Image software (Scion Co, USA).
Total cellular RNA was isolated by Trizol Reagent (Gibco BRL, USA) RNA extraction kit following manufacture instruction. cDNA were prepared from the sensitive HepG2 and the resistant HepG2/Adr cells. Reverse transcription was done with reverse transcriptase (Promega Corp., Madison, WI). Oligonucleotides primers for ABCB1 and GAPDH were synthesized commercially (Invitrogen Co., China). They included ABCB1 (homo sapiens), sense primer, 5′-[sequence]-3′, antisense primer, 5′-[sequence]-3′; Abcb1 (mus), sense primer, 5′-[sequence]-3′, antisense primer, 5′-[sequence]-3′; GAPDH, sense primer, 5′-[sequence]-3′, antisense primer, 5′-[sequence]-3′. […] Relative quantification of ABCB1 was performed using the 2^−ΔΔCt method [46]. […]

[9] = Adverse events in the hepatobiliary system in patients with HER2-overexpressing metastatic breast cancer; conditions: text count, cohort of 39 patients

SMILES: COc1cccc2c1C(=O)c1c(O)c3c(c(O)c1C2=O)C[C@@](O)(C(=O)CO)C[C@@H]3O[C@H]1C[C@H](N)[C@H](O)[C@H](C)O1 [Doxorubicin]
- AUC(0-inf) ([1]; in vivo, 10 mg/kg): 2960 ± 878 ng·h/mL
- AUC(0-t) ([1]; in vivo, 10 mg/kg): 2920 ± 841 ng·h/mL
- Vd ([1]; in vivo, 10 mg/kg): 0.00339 ± 0.00121 L
- MRT ([1]; plasma, 10 mg/kg): 7.51 ± 1.08 h
- half-life ([1]; plasma, 10 mg/kg): 312 ± 45 min
- liver histology (HE staining) [2]: mild central venous hyperemia, Hepatic cord disorder and vacuolar degeneration

SMILES: CS(=O)(=O)CCNCc1ccc(-c2ccc3ncnc(Nc4ccc(OCc5cccc(F)c5)c(Cl)c4)c3c2)o1 [Lapatinib]
- intracellular accumulation of doxorubicin [3]: not altered
- intracellular accumulation of rhodamine 123 [3]: not altered
- effect on cytotoxicity of doxorubicin [4]: enhance the cytotoxicity effect of doxorubicin in HepG2/Adr cells in a concentration-dependent manner
- half-life [5]: approximately 17 h
- highest peak plasma lapatinib concentration [5]: roughly 3 μM
- effect on cytotoxicity of doxorubicin [6]: not in the parental HepG2 cells
- increase of fluorescent index of doxorubicin [7]: 2.46 fold
- ABCB1 RNA and protein expressions [8]: not significantly altered

SMILES: CC(=O)O[C@H]1C(=O)[C@@]2(C)[C@H]([C@H](OC(=O)c3ccccc3)[C@]3(O)C[C@H](OC(=O)[C@H](O)[C@@H](NC(=O)c4ccccc4)c4ccccc4)C(C)=C1C3(C)C)[C@]1(OC(C)=O)CO[C@@H]1C[C@@H]2O [Paclitaxel, paclitaxel]
- MRT ([1]; in vivo, 18 mg/kg): 1.42 ± 0.08 h
- Vd ([1]; in vivo, 18 mg/kg): 0.015 ± 0.00128 L
- clearance ([1]; in vivo, 18 mg/kg): 0.139 mL/min
- half-life ([1]; in vivo, 18 mg/kg): 74.4 ± 3.6 min
- patients who showed grade 1 abnormal hepatic function [9]: 2 patients
- liver histology (HE staining) [2]: mild liver damage
